Assay results taken from patent US8927717B1, “Thiochromeno[2,3-c]quinolin-12-one derivatives, preparation method and application thereof” (National Defense Medical Center, priority 2014, dated 2015).

What was measured:
Assay type in all cases: cell-based
SNB-19 = conditions: SNB-19; 10^−5 molar
NCI/ADR-RES = conditions: NCI/ADR-RES; 10^−5 molar
MDA-MB-231/ATCC = conditions: MDA-MB-231/ATCC; 10^−5 molar
UACC-62 = conditions: UACC-62; 10^−5 molar
SR = conditions: SR; 10^−5 molar
SW-620 = conditions: SW-620; 10^−5 molar
TK-10 = conditions: TK-10; 10^−5 molar
K-562 = conditions: K-562; 10^−5 molar
HCT-15 = conditions: HCT-15; 10^−5 molar
HOP-62 = conditions: HOP-62; 10^−5 molar
A549/ATCC = conditions: A549/ATCC; 10^−5 molar
RXF 393 = conditions: RXF 393; 10^−5 molar
HL-60(TB) = conditions: HL-60(TB); 10^−5 molar
ACHN = conditions: ACHN; 10^−5 molar
BT-549 = conditions: BT-549; 10^−5 molar
MDA-MB-435 = conditions: MDA-MB-435; 10^−5 molar
SK-OV-3 = conditions: SK-OV-3; 10^−5 molar
HT29 = conditions: HT29; 10^−5 molar
MOLT-4 = conditions: MOLT-4; 10^−5 molar
NCI-H460 = conditions: NCI-H460; 10^−5 molar
SN12C = conditions: SN12C; 10^−5 molar
OVCAR-5 = conditions: OVCAR-5; 10^−5 molar
M14 = conditions: M14; 10^−5 molar
NCI-H522 = conditions: NCI-H522; 10^−5 molar
HCT-116 = conditions: HCT-116; 10^−5 molar
KM12 = experiment: cells; conditions: KM12; 10^−5 molar
LOX IMVI = conditions: LOX IMVI; 10^−5 molar
SNB-75 = conditions: SNB-75; 10^−5 molar
UO-31 = conditions: UO-31; 10^−5 molar
SK-MEL-5 = conditions: SK-MEL-5; 10^−5 molar
DU-145 = conditions: DU-145; 10^−5 molar
MCF7 = conditions: MCF7; 10^−5 molar
T-47D = conditions: T-47D; 10^−5 molar
OVCAR-8 = conditions: OVCAR-8; 10^−5 molar
COLO 205 = conditions: COLO 205; 10^−5 molar
60 cancer cell lines = experiment: NCI 60-cell screen, SRB, whole panel (mean, delta, range); conditions: 10^−5 molar
NCI-H23 = conditions: NCI-H23; 10^−5 molar
PC-3 = conditions: PC-3; 10^−5 molar
CCRF-CEM = conditions: CCRF-CEM; 10^−5 molar

## COc1ccc(CCNc2nc3ccccc3c3c(=O)c4cc(Cl)ccc4sc23)cc1 [Compound N31, 10-Chloro-6-((4-methoxyphenethyl)amino)-12H-thiochromeno[2,3-c]quinolin-12-one]
SNB-19
  Growth percent: 96.74%
NCI/ADR-RES
  Growth percent: 103.78%
MDA-MB-231/ATCC
  Growth percent: 82.31%
UACC-62
  Growth percent: 80.17%
SR
  Growth percent: 94.13%
SW-620
  Growth percent: 97.10%
TK-10
  Growth percent: 132.57%
K-562
  Growth percent: 91.76%
HCT-15
  Growth percent: 100.67%
HOP-62
  Growth percent: 90.07%
A549/ATCC
  Growth percent: 93.49%
RXF 393
  Growth percent: 88.50%
HL-60(TB)
  Growth percent: 94.27%
ACHN
  Growth percent: 91.19%
BT-549
  Growth percent: 105.24%
MDA-MB-435
  Growth percent: 104.49%
SK-OV-3
  Growth percent: 96.11%
HT29
  Growth percent: 120.78%
MOLT-4
  Growth percent: 82.02%
NCI-H460
  Growth percent: 98.14%
SN12C
  Growth percent: 94.23%
OVCAR-5
  Growth percent: 100.83%
M14
  Growth percent: 100.06%
NCI-H522
  Growth percent: 93.69%
HCT-116
  Growth percent: 98.46%
KM12
  Growth percent: 109.46%
LOX IMVI
  Growth percent: 87.78%
SNB-75
  Growth percent: 74.50%
UO-31
  Growth percent: 72.12%
SK-MEL-5
  Growth percent: 85.38%
DU-145
  Growth percent: 107.03%
MCF7
  Growth percent: 59.13%
T-47D
  Growth percent: 69.90%
OVCAR-8
  Growth percent: 97.83%
COLO 205
  Growth percent: 105.41%
60 cancer cell lines; delta over panel
  Growth percent, Delta: 39.45%
60 cancer cell lines; mean over panel
  Growth percent, Mean: 93.38%
60 cancer cell lines; range over panel
  Growth percent, Range: 78.64%
NCI-H23
  Growth percent: 92.72%
PC-3
  Growth percent: 84.95%
CCRF-CEM
  Growth percent: 100.93%
